Laboratory results reported in patent publication US12351819B2, “Method for removing undifferentiated pluripotent stem cells” (priority 2017, dated 2025).

Legend:
H9 hESC-MSCs [1] = settings: 2.5 μM, 24 hours
Method: The supernatants of cells treated with digoxin […], lanatoside C 2.5 μm, or DMSO solvent control for 24 hours were harvested. The released LDH was measured using CytoTox 96 […] assay according to the manufacture's instruction (Promega, Southampton, UK). The supernatants and reagents were incubated at room temperature for 20 minutes and then the reaction was stopped by Stop Solution. The absorbance at 490 nm was measured using a plate-reading spectrophotometer (Benchmark Plus Microplate Spectrophotometer System, BIO-RAD, CA, USA).
According to the report from Dr. Xu and colleagues^30, hESCs were cultured with 10 ng/ml BMP4 and 1 μM of A8301 for 5 days. Next, the cells were passaged on the gelatin-coated plate and the culture medium was switched to MSC culture medium [Minimum Essential Medium Eagle Alpha Modification (αMEM) medium supplemented with 20% fetal bovine serum (FBS), 1-glutamine (Gluta-MAX), 1× nonessential amino acids]. Cells were expanded within passage 5, and CD73^+ (11-0793, ThermoFisher Scientific) and CD105^+ (12-1057, ThermoFisher Scientific) double positive cells were sorted.
hESC-derived MSCs were trypsinized and washed with PBS. Then cells were incubated with anti-human CD73 FITC (ThermoFisher Scientific) and anti-human CD105 PE (ThermoFisher Scientific) for 15 minutes at 4° C. Cells were washed cells with PBS for three times. CD73^+/CD105^+ cells were sorted with the cell sorter (BD FACSAria II, BD Biosciences). Sorted cells were maintained in MSC culture medium.

[2] = tested on: hiPSC-derived endothelial cells; assay: LDH cytotoxicity assay in hiPSC-derived endothelial cells; format: cell-based, human; settings: 2.5 μM, 24 hours
Method: The released LDH was measured using CytoTox 96 Non-Cytotoxicity assay according to the manufacture's instruction (Promega, Southampton, UK). The supernatants and reagents were incubated at room temperature for 20 minutes and then the reaction was stopped by Stop Solution. The absorbance at 490 nm was measured using a plate-reading spectrophotometer (Benchmark Plus Microplate Spectrophotometer System, BIO-RAD, CA, USA).

hESCs [3] = assay: Cell colony and morphology under bright field, hESCs; format: cell-based, human; settings: 2.5 μM, 12 hours and 24 hours
Method: (§1) Scale bar: 500 μm. […] The samples were normalized to the DMSO-treated hESCs. ***P<0.001; **P<0.01; n.s. not significant. Data are shown as the mean SD.
We investigated whether cardiac glycosides affected the viability of hESCs or other cell types. First, we treated undifferentiated hESCs with digoxin and lanatoside C for 12 hours and 24 hours, respectively. […] To investigate the cytotoxic effect of the cardiac glycosides, we measured the release of LDH in the culture supernatants after the hESCs were treated with digoxin or Lanatoside C for 24 hours (FIG. 1C).

HUES6 hESCs = assay: Cell colony and morphology under bright field, HUES6; format: cell-based, human; settings: 2.5 μM, 12 hours and 24 hours
Description: Cells became round and died. […] Data are shown as the mean SD.

hBMMSCs = assay: Cell morphology under bright field, hBMMSCs; format: cell-based, human; settings: 2.5 μM, 12 hours and 24 hours
Description: as §1

H9 hESC-MSCs [4] = assay: Cell morphology under bright field, H9 hESC-MSCs; format: cell-based, human; settings: 2.5 μM, 12 hours and 24 hours
hESCs [5] = assay: PI/Annexin V flow cytometry cell death assay, hESCs; format: cell-based, human; settings: 24 hours; FIG. 2A: 1.25 μM digoxin, 2.5 μM lanatoside C
Method: For cell death assay, Propidium iodine/Annexin V assay was performed according to the manufacturer's instruction (Alexa Fluor® 488 Annexin V/Dead Cell Apoptosis Kit; Life Technologies). In brief, live cells were dissociated with trypsin and incubated with Annexin V antibody and PI working solution for 15 minutes. We added 400 μl 1× annexin binding buffer and analyzed the stained cells by FACSCanto™ (Becton Dickinson, Franklin Lakes, NJ, USA). For analyzing the phenotypic signature of MSCs we used a Stemflow™ hMSC analysis kit (BD Biosciences) and FACSCanto™. All flow data was analyzed by FACSDivam software (BD Biosciences) and FlowJo™ (FlowJo, LLC, Ashland, USA).

[6] = tested on: cleaved PARP, caspase-3, caspase-7 in hBMMSCs; assay: Western blot of apoptotic markers, hBMMSCs; format: cell-based, human; settings: 2.5 μM, 12 hours
Method: RIPA buffer was used to harvest cell lysates (RIPA buffer: NaCl 150 mM, Tris pH 8.0 50 mM, EDTApH 8.0 5 mM, NP-40 1.0%, SDS 0.5%, sodium deoxycholate 0.1%). Western blot analyses were performed as previously described with different types of primary antibodies^29. The primary antibody includes anti-β-actin (A5441; Sigma), anti-Oct4 (sc-9081; Santa Cruz Biotechnology, Santa Cruz, CA, USA), anti-Nanog (3580; Cell Signaling Technology, Danvers, MA, USA), apoptosis antibody kit (9915; Cell Signaling Technology), ATP1A1 (3010; Cell Signaling Technology), and ATP1A2 (16836-1-AP; Proteintech™) were used. After reaction at 4° C. overnight, the blots were incubated with goat anti-mouse- or goat anti-rabbit antibody conjugated with horseradish peroxidase (Jackson ImmunoResearch Inc). The chemiluminescent substrate (WBKLS0500; Millipore, Darmstadt, Germany) was used to detect the blots. Fujifilm LAS-4000 (FUJIFILM, Tokyo, Japan) was used to take the images.

hESCs [7] = assay: Alamar blue assay, hESCs; format: cell-based, human; settings: FIG. 12
Method: Alamar blue assay measured the relative cell number. In the cells, we added 1/10 of Alamar Blue Viability Assay reagent to the total volume of the mixture (Biotium; Fremont, CA, USA). The cells were incubated overnight at 37° C. The resulted were quantified by the measurement of optical density (OD) absorbance values at 570 nm and 600 nm, and the relative cell number was calculated.

hESCs teratoma formation = assay: In vivo tumorigenicity assay (teratoma formation of treated hESCs); settings: hESCs treated 24 hours before subcutaneous injection into NSG mice; 8 weeks; vs DMSO
Method: Approximately 10^6 treated cells were mixed with 10^5 MEFs to promote teratoma formation in 50 μl PBS^32. The cells mixture and 1× Matrigel Matrix was mixed well and the cells were subcutaneously injected into NOD scid gamma mice (NSG mice) for 8 weeks. After 8 weeks, animals were sacrificed and teratoma was removed, fixed in 10% formalin, embedded in paraffin and stained with hematoxylin and eosin. H&E stain protocol was modified from previous study^33. For immunohistochemistry, teratoma sections were blocked using 5% milk for 1 hour, and stained with primary antibody at 4° C. overnight, follow by secondary antibody (Dako, Santa Clara, CA, USA) for 1 hour at RT and DAB enhancer (Dako). Primary antibody: anti-human alpha-1-fetoprotein (A0008, Dako) for endoderm lineage; anti-human smooth muscle actin, clone 1A4 (M0851, Dako) for mesoderm lineage; anti-Tuj1 (MAB1637, EMD Millipore, Darmstadt, Germany) for ectoderm.

| SMILES | cytotoxicity (LDH release) in H9 hESC-MSCs (H9 hESC-MSCs [1]) | survival of hiPSC-derived endothelial cells (LDH release) [2] | cell death (bright field morphology) in hESCs (hESCs [3]) | cell death (bright field morphology) in HUES6 (HUES6 hESCs) | survival of hBMMSCs (bright field morphology) (hBMMSCs) | cell death (bright field morphology) in H9 hESC-MSCs (H9 hESC-MSCs [4]) | cell death (PI/Annexin V) in hESCs (hESCs [5]) | cleaved form of apoptosis markers in hBMMSCs [6] | cell death in hESCs (Alamar blue, relative cell number) (hESCs [7]) | tumor (teratoma) weight (hESCs teratoma formation) |
| --- | --- | --- | --- | --- | --- | --- | --- | --- | --- | --- |
| CC(=O)O[C@H]1C[C@H](O[C@H]2[C@@H](O)C[C@H](O[C@H]3[C@@H](O)C[C@H](O[C@H]4CC[C@@]5(C)[C@H](CC[C@@H]6[C@@H]5C[C@@H](O)[C@]5(C)[C@@H](C7=CC(=O)OC7)CC[C@]65O)C4)O[C@@H]3C)O[C@@H]2C)O[C@H](C)[C@H]1O[C@@H]1O[C@H](CO)[C@@H](O)[C@H](O)[C@H]1O [Lanatoside C, lanatoside C] | Neither Digoxin nor lanatoside C affected the survival | remained alive | induced dramatic cell death | induced cell death | did not affect the survival | Neither digoxin (2.5 μM) nor lanatoside C (2.5 μM) induced cell death | 82% | no cleaved form of the apoptosis markers was detected | dose dependent manner | significantly decreased |
| C[C@H]1O[C@@H](O[C@H]2[C@@H](O)C[C@H](O[C@H]3[C@@H](O)C[C@H](O[C@H]4CC[C@@]5(C)[C@H](CC[C@@H]6[C@@H]5C[C@@H](O)[C@]5(C)[C@@H](C7=CC(=O)OC7)CC[C@]65O)C4)O[C@@H]3C)O[C@@H]2C)C[C@H](O)[C@@H]1O [Digoxin, digoxin] | Neither Digoxin nor lanatoside C affected the survival | remained alive | induced dramatic cell death | induced cell death | did not affect the survival | Neither digoxin (2.5 μM) nor lanatoside C (2.5 μM) induced cell death | 70% | no cleaved form of the apoptosis markers was detected | dose dependent manner | significantly decreased |
